Assay [1] has as its target T1, C5aR (Homo sapiens (Human), UniProt P21730). Briefly: Inhibition of C5a-C5aR binding determined by cell migration assay (U937/C5aR cells). The class given is cell-based. Conditions: U937/C5aR cell migration towards human C5a, 180 min. The procedure: Migration assay was performed by using polycarbonate membrane with 3.0 µm pore (Corning). U937/C5aR cells were collected and washed twice by PBS; cells were suspended in Hank's balanced salt solution (HBSS)+1% FBS buffer at the density of 6×10^6 cells/ml. Cells were premixed with compound and added to insert well, ligand human C5a and compound were added to bottom well in order, gently mix, incubate for 30 min at 37° C., […]. Put insert plate into bottom well, migrate for 180 min at 37° C., […]. Gently remove the insert well, add 50 μl CellTiter-Glo (Promega), gently shaking for 5 min at room temperature, transfer 150 μl mixture to black plate and read luminescence intensity by
microplate reader (BioTek).

For assay [2], the target named is human C5a receptor (C5aR) (Homo sapiens (Human), UniProt P21730). Kind of assay: Inhibition of C5a-C5aR binding (biotinylated human C5a, U937/C5aR cells, FACS). In a few lines:
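Binding read by flow cytometry as FITC-streptavidin signal (30 min on ice) on washed cells after a 120 min on-ice incubation of compound with biotinylated human C5a (30 nM working solution). Cells used were C5aR-transfected U937, suspended at 3×10^6 cells/ml in PBS containing 0.1% BSA.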

Assay [3] deals with T1, C5aR. Kind of assay: Calcium mobilization (U937/C5aR or HEK293/C5aR cells, FLIPR). The class given is cell-based. The note with it: agonist human C5a at EC80, FLIPR. In a few lines: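 FLIPR calcium-flux read-out using Fluo-4 Direct-loaded C5aR-expressing U937 or HEK293 cells stimulated with human C5a at its EC80. Compound was applied for 60 min before dye loading (50 min at 37 °C plus 10 min at room temperature) and agonist addition.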

Structures are written as SMILES.

human C5a receptor (C5aR), sequence (P21730 whole entry): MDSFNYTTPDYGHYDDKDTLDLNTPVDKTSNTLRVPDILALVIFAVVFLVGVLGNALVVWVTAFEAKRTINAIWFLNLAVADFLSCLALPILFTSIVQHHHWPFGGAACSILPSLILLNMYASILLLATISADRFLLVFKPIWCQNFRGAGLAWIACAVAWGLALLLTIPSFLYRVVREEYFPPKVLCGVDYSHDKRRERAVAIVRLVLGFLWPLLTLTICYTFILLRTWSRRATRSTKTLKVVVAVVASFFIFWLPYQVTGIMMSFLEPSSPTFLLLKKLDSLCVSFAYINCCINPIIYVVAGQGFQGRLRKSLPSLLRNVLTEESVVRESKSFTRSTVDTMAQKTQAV
T1 sequence (P21730 whole entry): as above

In general, IC50 refers to the point on the concentration scale where inhibition reaches its midpoint. For `Cc1cccc(F)c1C(=O)N1C2CCC[C@@H]2C[C@H](C(=O)Nc2ccc3cccnc3c2)[C@@H]1c1ccc(NC2CCCC2)cc1` (mixture of isomers) [Compound 73, cis-2-(4-(cyclopentylamino)phenyl)-1-(2-fluoro-6-methylbenzoyl)-N-(quinolin-7-yl)octahydro-1H-cyclopenta[b]pyridine-3-carboxamide], the IC50 (at C5aR [1]; in assay [2]; on C5aR [3]) was 50 to 500 nM throughout.

Take `Cc1cccc(F)c1C(=O)N1[C@@H]2CCC[C@@H]2C[C@H](C(=O)Nc2ccc3cnn(C4COC4)c3c2)[C@@H]1c1ccc(NC2CCCC2)cc1` (racemic) [Compound 59, cis-2-(4-(cyclopentylamino)phenyl)-1-(2-fluoro-6-methylbenzoyl)-N-(1-(oxetan-3-yl)-1H-indazol-6-yl)octahydro-1H-cyclopenta[b]pyridine-3-carboxamide]: the IC50 was in the range of 50 to 500 nM at C5aR [1], 50 to 500 nM in assay [2] and 500 to 2000 nM at C5aR [3].

Consider `Cc1ccc(NC(=O)[C@H]2C[C@H]3CCC[C@H]3N(C(=O)c3c(C)cccc3F)[C@H]2c2ccc(NC3CCCC3)cc2)cc1C#N` (racemic) [Compound 62, cis-N-(3-cyano-4-methylphenyl)-2-(4-(cyclopentylamino)phenyl)-1-(2-fluoro-6-methylbenzoyl)octahydro-1H-cyclopenta[b]pyridine-3-carboxamide], for which the IC50 (at C5aR [1]; in assay [2]; on C5aR [3]) was 50 to 500 nM in each case.

`Cc1cccc(F)c1C(=O)N1[C@@H]2CCC[C@@H]2C[C@H](C(=O)Nc2ccc3cnn(C)c3c2)[C@@H]1c1ccc(NC2CCCC2)cc1` (racemic) [Compound 66, cis-2-(4-(cyclopentylamino)phenyl)-1-(2-fluoro-6-methylbenzoyl)-N-(1-methyl-1H-indazol-6-yl)octahydro-1H-cyclopenta[b]pyridine-3-carboxamide]: the half-maximal inhibitory concentration (IC50) at C5aR [1] was less than 50 nM; at C5aR [3], 50 to 500 nM.

In the case of `Cc1cccc(F)c1C(=O)N1[C@@H]2CCC[C@@H]2C[C@H](C(=O)Nc2ccc3ncoc3c2)[C@@H]1c1ccc(NC2CCCC2)cc1` (racemic) [Compound 67, cis-N-(benzo[d]oxazol-6-yl)-2-(4-(cyclopentylamino)phenyl)-1-(2-fluoro-6-methylbenzoyl)octahydro-1H-cyclopenta[b]pyridine-3-carboxamide], the concentration for half-maximal inhibition (IC50) at C5aR [1] is 50 to 500 nM; in assay [2], less than 50 nM; at C5aR [3], 50 to 500 nM.

Regarding `Cc1cccc(F)c1C(=O)N1[C@@H]2CCC[C@@H]2C[C@H](C(=O)Nc2cccc(S(C)(=O)=O)c2)[C@@H]1c1ccc(NC2CCCC2)cc1` (racemic) [Compound 70, cis-2-(4-(cyclopentylamino)phenyl)-1-(2-fluoro-6-methylbenzoyl)-N-(3-(methylsulfonyl)phenyl)octahydro-1H-cyclopenta[b]pyridine-3-carboxamide], the half-inhibitory concentration (IC50) on C5aR [1] lay within 500 to 2000 nM; in assay [2], 500 to 2000 nM; on C5aR [3], 2000 to 10000 nM.

On to `Cc1ccc(NC(=O)[C@H]2CC[C@@H]3CCc4cccc(F)c4C(=O)N3C2c2ccc(NC3CCCC3)cc2)cc1C(F)(F)F` (relative stereo) [Compound 41, cis-4-(4-(cyclopentylamino)phenyl)-7-fluoro-N-(4-methyl-3-(trifluoromethyl)phenyl)-6-oxo-1,2,3,4,6,11,12,12a-octahydrobenzo[e]pyrido[1,2-a]azepine-3-carboxamide], for which the IC50 on C5aR [1] is 50 to 500 nM; in assay [2] it was 500 to 2000 nM; on C5aR [3], 2000 to 10000 nM.

On to `Cc1ccc(NC(=O)[C@H]2CC[C@@H]3Cc4ccccc4C(=O)N3C2c2ccc(NC3CCCC3)cc2)cc1C(F)(F)F` (relative stereo) [Compound 43, cis-4-(4-(cyclopentylamino)phenyl)-N-(4-methyl-3-(trifluoromethyl)phenyl)-6-oxo-1,3,4,6,11,11a-hexahydro-2H-pyrido[1,2-b]isoquinoline-3-carboxamide], for which the concentration for half-maximal inhibition (IC50) at C5aR [1] was greater than 5000 nM; on C5aR [3], 2000 to 10000 nM.

In the case of `Cc1cccc(F)c1C(=O)N1C2CCC[C@@H]2C[C@H](C(=O)Nc2cccc(C(F)(F)F)c2)[C@@H]1c1ccc(NC2CCCC2)cc1` (relative stereo) [Compound 46, cis-2-(4-(cyclopentylamino)phenyl)-1-(2-fluoro-6-methylbenzoyl)-N-(3-(trifluoromethyl)phenyl)octahydro-1H-cyclopenta[b]pyridine-3-carboxamide], the concentration for half-maximal inhibition (IC50) (on C5aR [1]; in assay [2]; at C5aR [3]) was 50 to 500 nM each time.

For the molecule `Cc1cccc(F)c1C(=O)N1C2CCC[C@@H]2C[C@H](C(=O)Nc2cccnc2)[C@@H]1c1ccc(NC2CCCC2)cc1` (relative stereo) [Compound 57, cis-2-(4-(cyclopentylamino)phenyl)-1-(2-fluoro-6-methylbenzoyl)-N-(pyridin-3-yl)octahydro-1H-cyclopenta[b]pyridine-3-carboxamide], the 50% inhibitory concentration (IC50) at C5aR [1] fell in the range of 50 to 500 nM; in assay [2], 50 to 500 nM; on C5aR [3], 2000 to 10000 nM.

Take `Cc1ccc(NC(=O)C2C[C@@H]3CN(C)C[C@@H]3N(C(=O)c3c(C)cccc3F)C2c2ccc(N(C)C3CCCC3)cc2)cc1C(F)(F)F` (relative stereo) [Compound 144, cis-2-(4-(cyclopentyl(methyl)amino)phenyl)-1-(2-fluoro-6-methylbenzoyl)-6-methyl-N-(4-methyl-3-(trifluoromethyl)phenyl)octahydro-1H-pyrrolo[3,4-b]pyridine-3-carboxamide]: the IC50 on C5aR [1] was in the range of 50 to 500 nM; at C5aR [3], 2000 to 10000 nM.

On to `Cc1ccc(NC(=O)C2C[C@@H]3CCC[C@@H]3N(C(=O)c3c(C)cccc3F)C2c2ccc(NC3CCCC3)cc2)cc1C(F)(F)F` (relative stereo) [Compound 193, cis-2-(4-(cyclopentylamino)phenyl)-1-(2-fluoro-6-methylbenzoyl)-N-(4-methyl-3-(trifluoromethyl)phenyl)octahydro-1H-cyclopenta[b]pyridine-3-carboxamide], for which the results for the IC50 at C5aR [1] and at C5aR [3] were 50 to 500 nM and less than 50 nM, respectively.

For `Cc1ccc(NC(=O)[C@H]2CCCN(C(=O)c3c(C)cccc3F)[C@H]2C2CCC3(CCOC3)CC2)cc1C(F)(F)F` (relative stereo) [Compound 203, cis-1-(2-fluoro-6-methylbenzoyl)-N-(4-methyl-3-(trifluoromethyl)phenyl)-2-(2-oxaspiro[4.5]decan-8-yl)piperidine-3-carboxamide], the concentration for half-maximal inhibition (IC50) was 500 to 2000 nM on C5aR [1] and 2000 to 10000 nM on C5aR [3].

As to `Cc1ccc(NC(=O)[C@@H]2CC(O)CN(C(=O)c3c(C)cccc3F)[C@@H]2c2ccc(NC3CCCC3)cc2)cc1C(F)(F)F` (relative stereo) [Compound 204, cis-2-(4-(cyclopentylamino)phenyl)-1-(2-fluoro-6-methylbenzoyl)-5-hydroxy-N-(4-methyl-3-(trifluoromethyl)phenyl)piperidine-3-carboxamide], the 50% inhibitory concentration (IC50) fell in the range of 50 to 500 nM on C5aR [1] and 2000 to 10000 nM on C5aR [3].

`Cc1cccc(F)c1C(=O)N1C2CCCC2CC(C(=O)Nc2ccc3c(cnn3C)c2)C1c1ccc(CN2CCC[C@@H]2C(F)(F)F)cc1` (stereo in doubt) [Compound 205, cis-1-(2-fluoro-6-methylbenzoyl)-N-(1-methyl-1H-indazol-5-yl)-2-(4-(((R)-2-(trifluoromethyl)pyrrolidin-1-yl)methyl)phenyl)octahydro-1H-cyclopenta[b]pyridine-3-carboxamide] came in with an IC50 on C5aR [1] of less than 50 nM.

Consider `Cc1ccc(NC(=O)[C@H]2CCCN(S(=O)(=O)c3c(F)c(F)c(F)c(F)c3F)[C@H]2c2ccc(NC3CCCC3)cc2)cc1C(F)(F)F` [Compound 37, (2R,3S)-2-(4-(cyclopentylamino)phenyl)-N-(4-methyl-3-(trifluoromethyl)phenyl)-1-((perfluorophenyl)sulfonyl)piperidine-3-carboxamide], for which the IC50 at C5aR [1] is greater than 5000 nM; at C5aR [3], 2000 to 10000 nM.

Consider `Cc1ccc(NC(=O)[C@H]2CCCN(c3nccc4cccnc34)[C@H]2c2ccc(N(C(=O)OCc3ccccc3)C3CCCC3)cc2)cc1C(F)(F)F` [Compound 164, benzyl cyclopentyl(4-((2R,3S)-3-((4-methyl-3-(trifluoromethyl)phenyl)carbamoyl)-1-(1,7-naphthyridin-8-yl)piperidin-2-yl)phenyl)carbamate], for which the half-inhibitory concentration (IC50) was 2000 to 5000 nM at C5aR [1] and 2000 to 10000 nM at C5aR [3].

With `Cc1ccc(NC(=O)[C@H]2CCCN[C@H]2c2ccc(N(c3nccc4cccnc34)C3CCCC3)cc2)cc1C(F)(F)F` [Compound 168, (2R,3S)-2-(4-(cyclopentyl(1,7-naphthyridin-8-yl)amino)phenyl)-N-(4-methyl-3-(trifluoromethyl)phenyl)piperidine-3-carboxamide], the concentration for half-maximal inhibition (IC50) is greater than 5000 nM on C5aR [1] and 2000 to 10000 nM at C5aR [3].

`Cc1cccc(F)c1C(=O)N1CCC[C@H](c2nc3cc(C(C)(C)C)ccc3o2)[C@@H]1c1ccc(NC2CCCC2)cc1` [Compound 181, ((2R,3S)-3-(5-(tert-butyl)benzo[d]oxazol-2-yl)-2-(4-(cyclopentylamino)phenyl)piperidin-1-yl)(2-fluoro-6-methylphenyl)methanone]: the figures for the IC50 on C5aR [1] and on C5aR [3] were greater than 5000 nM and 2000 to 10000 nM, respectively.

Values taken from patent publication US20240043439A1, “COMPOUNDS AS C5AR INHIBITORS” (Kira Pharmaceuticals (Suzhou) Ltd., priority 2020, published 2024).
